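All cell lines were grown in 96-well plates and treated with compound for 48 hours. Here, GI50 denotes the concentration required for 50% inhibition of growth.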 Activity calls are given as the source filed them. No stated cut-off is given here; in the data, active = GI50 up to about 1.1 µM and inactive = higher.
Assays:
Assay in all cases: NCI anticancer screen, dose series, 48 h
786-0 = tested on: 786-0
ACHN = tested on: ACHN
DU-145 = tested on: DU-145
HCT-15 = tested on: HCT-15
HOP-92 = tested on: HOP-92
HT-29 = tested on: HT-29
MOLT-4 = tested on: MOLT-4
Malme-3M = tested on: Malme-3M
NCI-H226 = tested on: NCI-H226
NCI-H522 = tested on: NCI-H522
OVCAR-4 = tested on: OVCAR-4
SF-268 = tested on: SF-268
SF-295 = tested on: SF-295
SK-MEL-28 = tested on: SK-MEL-28
SK-MEL-2 = tested on: SK-MEL-2
SK-MEL-5 = tested on: SK-MEL-5
SK-OV-3 = tested on: SK-OV-3
SN12C = tested on: SN12C
UACC-257 = tested on: UACC-257
UACC-62 = tested on: UACC-62

Structure (SMILES): Cc1oc(N)c(S(=O)(=O)c2cc3ccccc3[n+]([O-])c2N)c1C
- GI50 (786-0): > 100 µM (inactive)
- GI50 (ACHN): > 100 µM (inactive)
- GI50 (DU-145): > 100 µM (inactive)
- GI50 (HCT-15): > 100 µM
- GI50 (HOP-92): > 100 µM (inactive)
- GI50 (HT-29): > 100 µM (inactive)
- GI50 (MOLT-4): > 100 µM (inactive)
- GI50 (Malme-3M): > 100 µM (inactive)
- GI50 (NCI-H226): > 100 µM (inactive)
- GI50 (NCI-H522): > 100 µM (inactive)
- GI50 (OVCAR-4): > 100 µM (inactive)
- GI50 (SF-268): > 100 µM (inactive)
- GI50 (SF-295): > 100 µM (inactive)
- GI50 (SK-MEL-28): > 100 µM (inactive)
- GI50 (SK-MEL-2): > 100 µM (inactive)
- GI50 (SK-MEL-5): > 100 µM (inactive)
- GI50 (SK-OV-3): > 100 µM (inactive)
- GI50 (SN12C): > 100 µM (inactive)
- GI50 (UACC-257): > 100 µM (inactive)
- GI50 (UACC-62): > 100 µM (inactive)

Source: ChEMBL document CHEMBL1201862, “PubChem BioAssay data set” (2004)
